For test [1], the system named is MGC-803. Briefly: Anticancer activity against human MGC-803 cells assessed as cell growth inhibition incubated for 24 hrs by MTT assay. Type of test: functional, cell-based. The conditions noted are these: MGC-803, 24 h.
The test system of test [2] is T-24. Briefly: Anticancer activity against human T24 cells assessed as cell growth inhibition incubated for 24 hrs by MTT assay. Type of test: functional, cell-based. The conditions noted are these: T-24, 24 h.
In test [3] the test system is Mycobacterium tuberculosis. The test is described as follows: Antitubercular activity against Mycobacterium tuberculosis H37Rv strain assessed as bacterial growth inhibition. Type of test: functional.
In test [4] the test system is GAMG. The test is described as follows: Anticancer activity against human GAMG cells assessed as cell growth inhibition. The test is classed as functional, cell-based.
The test system of test [5] is SK-N-BE(2). The test is described as follows: Anticancer activity against human SKNBE2 cells assessed as cell growth inhibition. Type of test: functional, cell-based.
Test [6] concerns the target Vascular endothelial growth factor receptor 1 (Homo sapiens, UniProt P17948). Briefly: Inhibition of VEGFR1 (unknown origin) in presence of ATP.
Test [7] relates to MCF7. The test is described as follows: Growth inhibition of human MCF7 cells. Type of test: functional.
Test [8] deals with High affinity nerve growth factor receptor (Homo sapiens, UniProt P04629). Briefly: Inhibition of TrkA (unknown origin).
Sequence of High affinity nerve growth factor receptor (P04629 whole entry): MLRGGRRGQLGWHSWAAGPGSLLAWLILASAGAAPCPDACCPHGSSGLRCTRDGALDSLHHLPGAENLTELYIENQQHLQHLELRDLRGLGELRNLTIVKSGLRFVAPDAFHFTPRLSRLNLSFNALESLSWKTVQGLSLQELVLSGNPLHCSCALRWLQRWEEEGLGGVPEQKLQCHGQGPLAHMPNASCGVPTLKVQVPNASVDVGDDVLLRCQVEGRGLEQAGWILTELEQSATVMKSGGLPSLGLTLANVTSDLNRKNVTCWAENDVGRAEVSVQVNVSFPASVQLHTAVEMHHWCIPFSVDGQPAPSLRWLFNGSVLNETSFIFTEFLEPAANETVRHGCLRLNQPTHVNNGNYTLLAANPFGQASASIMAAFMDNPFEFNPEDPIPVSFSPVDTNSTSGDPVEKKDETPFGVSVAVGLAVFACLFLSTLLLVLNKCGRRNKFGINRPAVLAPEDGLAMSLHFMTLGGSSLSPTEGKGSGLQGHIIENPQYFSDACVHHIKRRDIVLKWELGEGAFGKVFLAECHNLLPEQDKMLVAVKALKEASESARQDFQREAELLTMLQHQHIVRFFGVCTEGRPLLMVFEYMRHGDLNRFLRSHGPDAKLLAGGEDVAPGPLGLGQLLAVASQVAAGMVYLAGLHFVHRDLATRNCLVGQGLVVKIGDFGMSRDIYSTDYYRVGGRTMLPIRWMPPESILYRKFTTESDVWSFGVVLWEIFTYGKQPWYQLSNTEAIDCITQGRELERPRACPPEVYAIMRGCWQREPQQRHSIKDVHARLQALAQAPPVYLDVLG
In test [9] the test system is RKO. Briefly: Anticancer activity against human RKO cells assessed as cell growth inhibition by MTT assay. The test is classed as functional, cell-based.
The subject of test [10] is MDA-MB-435. The test is described as follows: Anticancer activity against human MDA-MB-435 cells assessed as cell growth inhibition by MTT assay. Type of test: functional, cell-based.
Test [11] has as its system Staphylococcus aureus. The test is described as follows: Antibacterial activity against Staphylococcus aureus assessed as bacterial growth inhibition. The test is classed as functional.
Test [12] relates to Escherichia coli. The test is described as follows: Antibacterial activity against Escherichia coli assessed as bacterial growth inhibition. The test is classed as functional.
The target in test [13] is Aldo-keto reductase family 1 member B1 (Homo sapiens, UniProt P15121). Briefly: Inhibition of AR (unknown origin) assessed as glycation activity.
The species named for test [14] is Homo sapiens. The test is described as follows: Inhibition of ERK (unknown origin) at 100 uM by western blot assay relative to control.
Test [15] deals with A549. The test is described as follows: Anticancer activity against human A549 cells assessed as cell growth inhibition. The test is classed as functional, cell-based.
The target of test [16] is Cyclin-dependent kinase 2 (Homo sapiens, UniProt P24941). Briefly: Inhibition of human CDK2 […]-Pro-Met-Ser-Pro-Lys-LysLys-Ala-CONH2 peptide as substrate incubated for 30 to 60 mins by scintillation counter analysis.
Test [17] addresses Cyclin-dependent kinase 1 (Homo sapiens, UniProt P06493). The test is described as follows: Inhibition of human CDK1 using Biotinaminohexyl-Ala-Arg-Arg-Pro-Met-Ser-Pro-Lys-LysLys-Ala-CONH2 peptide as substrate incubated for 20 to 30 mins by scintillation counter analysis.
Test [18] has as its system Streptococcus pyogenes. Briefly: Antibacterial activity against Streptococcus pyogenes assessed as bacterial growth inhibition. The test is classed as functional.
The subject of test [19] is Pseudomonas aeruginosa. The test is described as follows: Antibacterial activity against Pseudomonas aeruginosa assessed as bacterial growth inhibition. Type of test: functional.

From ChEMBL document CHEMBL5252532, “Oxindole: A chemical prism carrying plethora of therapeutic benefits” (Eur J Med Chem, 2016) come the findings set out here.

Each structure is given as a SMILES string. Values after ≈ are worked out from the molar mass of the structure shown.

Sequence of Vascular endothelial growth factor receptor 1 (P17948 whole entry): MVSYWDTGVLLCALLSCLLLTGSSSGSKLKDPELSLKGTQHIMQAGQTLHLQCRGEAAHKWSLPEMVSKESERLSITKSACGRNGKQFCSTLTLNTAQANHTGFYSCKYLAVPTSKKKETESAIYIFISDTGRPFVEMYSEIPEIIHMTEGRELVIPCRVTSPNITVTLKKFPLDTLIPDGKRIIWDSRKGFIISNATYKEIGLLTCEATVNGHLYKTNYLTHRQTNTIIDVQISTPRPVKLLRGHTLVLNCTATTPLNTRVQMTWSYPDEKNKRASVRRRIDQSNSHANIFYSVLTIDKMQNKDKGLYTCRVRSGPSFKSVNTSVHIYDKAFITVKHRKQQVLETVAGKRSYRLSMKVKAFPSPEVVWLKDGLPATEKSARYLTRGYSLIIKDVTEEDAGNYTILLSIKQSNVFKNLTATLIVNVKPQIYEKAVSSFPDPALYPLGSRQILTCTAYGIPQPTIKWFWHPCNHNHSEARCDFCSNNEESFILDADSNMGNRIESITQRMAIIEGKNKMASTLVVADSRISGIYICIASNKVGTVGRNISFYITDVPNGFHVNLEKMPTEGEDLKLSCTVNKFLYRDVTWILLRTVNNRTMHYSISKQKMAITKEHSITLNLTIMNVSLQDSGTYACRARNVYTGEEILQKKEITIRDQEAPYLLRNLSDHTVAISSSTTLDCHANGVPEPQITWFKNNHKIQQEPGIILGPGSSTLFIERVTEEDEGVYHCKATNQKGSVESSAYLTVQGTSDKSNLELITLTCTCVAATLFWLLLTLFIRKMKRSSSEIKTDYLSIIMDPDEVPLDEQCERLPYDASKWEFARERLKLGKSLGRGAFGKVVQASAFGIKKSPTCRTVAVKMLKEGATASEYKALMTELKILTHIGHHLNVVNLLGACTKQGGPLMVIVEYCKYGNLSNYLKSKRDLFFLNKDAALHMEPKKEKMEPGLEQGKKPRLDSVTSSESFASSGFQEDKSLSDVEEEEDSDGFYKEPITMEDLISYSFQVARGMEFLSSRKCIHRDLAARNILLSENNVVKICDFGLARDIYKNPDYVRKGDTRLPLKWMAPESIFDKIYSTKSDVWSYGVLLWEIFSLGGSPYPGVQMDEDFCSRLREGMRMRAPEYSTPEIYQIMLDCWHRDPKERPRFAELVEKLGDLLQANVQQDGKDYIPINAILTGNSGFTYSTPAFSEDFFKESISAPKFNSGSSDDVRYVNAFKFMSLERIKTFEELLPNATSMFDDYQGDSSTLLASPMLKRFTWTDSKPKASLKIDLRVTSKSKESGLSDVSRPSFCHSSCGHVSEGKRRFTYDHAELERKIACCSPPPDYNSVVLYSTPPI
Sequence of Cyclin-dependent kinase 1 (P06493 whole entry): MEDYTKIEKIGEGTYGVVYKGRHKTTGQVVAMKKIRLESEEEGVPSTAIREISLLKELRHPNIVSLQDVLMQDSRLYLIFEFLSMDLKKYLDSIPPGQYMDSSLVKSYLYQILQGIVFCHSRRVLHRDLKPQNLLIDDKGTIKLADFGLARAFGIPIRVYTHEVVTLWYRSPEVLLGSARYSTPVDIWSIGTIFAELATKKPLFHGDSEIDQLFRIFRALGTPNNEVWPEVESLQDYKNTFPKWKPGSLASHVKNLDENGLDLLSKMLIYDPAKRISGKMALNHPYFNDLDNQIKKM

Consider `CC(=O)O[C@H]1CC[C@@]2(C)C(=CC[C@@H]3[C@@H]2CC[C@]2(C)C4=C(C#N)C(=N)OC5(C(=O)N(Cc6c(F)cccc6F)c6ccccc65)C4C[C@@H]32)C1` (stereo partly specified), for which the IC50 in [1] was determined as 8.45 µM; in test [2], 4.43 µM. For `Cc1ccc(CN2C(=O)/C(=N/NC(=O)c3ccccc3)c3cc(C)ccc32)cc1`, in [3], the MIC was found to be 25 µg/mL (≈ 65.2 µM).

Take `COC(=O)C1=CO[C@@H](C)[C@H]2CN3CC[C@]4(C(=O)Nc5ccccc54)[C@@H]3C[C@H]12`: the half-maximal inhibitory concentration (IC50) in test [4] was 12.3 µM; in test [5], 20 µM. Consider `Cc1cc(CCC(=O)O)c(/C=C2\C(=O)Nc3ccccc32)[nH]1`, for which the IC50 in test [6] came to 96 nM. Molecule `CN1C(=O)O[C@]2(C[C@H]1c1ccccc1)C(=O)Nc1ccccc12` had a GI50 in test [7] of 2600 nM. This lies in the single-digit micromolar range.

The molecule `O=C1Nc2ccccc2/C1=C/Nc1ccc(-n2nccn2)cc1` yielded an IC50 in test [8] of 8 nM.

As for `COc1cc[nH]c1/C=C1\C(=O)Nc2ccc([N+](=O)[O-])c(N3CC[C@@H](N)C3)c21`, the IC50 in [9] and in test [10] was less than 10 µM each time.

For `CC1(C)CC(=O)C2=C(C1)NC(=S)NC21C(=O)Nc2ccc(Br)cc21` (stereo unspecified), the MIC in test [11] and in test [12] was 500 µg throughout. Take `O=C1Nc2ccccc2/C1=C/c1cccc(Cl)c1`: in test [13], the IC50 stood at 150 µM.

For the molecule `O=C1Nc2ccccc2C1=O`, the inhibition in test [14] amounted to 35%.

For `O=C1Nc2ncccc2C12CCN(Cc1ccccc1OC(F)(F)F)CC2`, the IC50 in test [15] worked out at 50 nM. In the case of `O=C1Nc2ccc3ncsc3c2/C1=C/Nc1ccc(S(=O)(=O)NCCOCCO)cc1`, the IC50 stood at 12 nM in [16] and 0.54 nM in test [17]. Turning to `CC(=O)O[C@H]1CC[C@@]2(C)C(=CC[C@@H]3[C@@H]2CC[C@]2(C)C4=C(C#N)C(=N)OC5(C(=O)N(Cc6ccc(C)cc6)c6ccccc65)C4C[C@@H]32)C1` (stereo partly specified), the values for the IC50 in test [1] and in [2] were 8.45 µM and 4.43 µM, respectively. Regarding `O=C1Cc2cc(O)ccc2N1`, the inhibition in test [14] was determined as 35%. Consider `Cc1ccc(O)c(/C=C2\C(=O)Nc3ccccc32)c1`, for which, in test [13], the IC50 was found to be 195 µM. Regarding `Cc1ccc(S(=O)(=O)N2CCN(c3ccc(/C=C4/C(=O)Nc5ccccc54)cc3)CC2)cc1`, the MIC was determined as 25 µg/mL (≈ 54.4 µM) in test [18]; 25 µg/mL (≈ 54.4 µM) in [11] (Staphylococcus aureus, read-out: MIC); 25 µg/mL (≈ 54.4 µM) in test [12] (Escherichia coli, read-out: MIC); 25 µg/mL (≈ 54.4 µM) in [19]. For `C[C@@H]1O[C@@H](OC[C@H]2O[C@@H](Oc3c(-c4ccc(O)c(O)c4)oc4cc(O)cc(O)c4c3=O)[C@H](O)[C@@H](O)[C@@H]2O)[C@H](O)[C@H](O)[C@H]1O` [RUTIN], in test [13], the IC50 is 295 µM.
